According to the supplement of paper PMC11061612:

Key:
Test in all cases: combination Emax (second highest fraction inhibited in the dose matrix, 72 h); higher = more inhibition; extreme values may be limits of the assay
[1] = test system: EW-7 (Ewing's Sarcoma)
Summary of the method: (§1)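 Cell lines in DMEM/F12 or RPMI with 10% FBS were plated in 1536-well plates, held 24 hours at 37°C, 5% CO2, then given two-drug dose matrices for 72 hours (DMSO typically 0.2%). Viability was read by CellTiter-Glo 2.0 luminescence and scaled as inhibition from 0 (vehicle wells) to 1 (blank wells). Combination Emax is the second-highest inhibition in the matrix; Bliss excess is observed combination effect minus expected EA + EB − EA·EB, EA and EB being single-agent effects.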

[2] = test system: JHU-022 (Oral Cavity Carcinoma)
Summary of the method: as §1

[3] = test system: NCI-H2087 (Lung Adenocarcinoma)
Summary of the method: as §1

[4] = test system: UACC-812 (Breast Carcinoma)
Summary of the method: as §1

[5] = test system: NCI-H1703 (Squamous Cell Lung Carcinoma)
Summary of the method: as §1

[6] = test system: PEO1 (Ovarian Carcinoma)
Summary of the method: as §1

[7] = test system: KYSE-220 (Esophageal Squamous Cell Carcinoma)
Summary of the method: as §1

[8] = test system: A101D (Melanoma)
Summary of the method: as §1

SMILES	combination Emax [1]	combination Emax [2]	combination Emax [3]	combination Emax [4]	combination Emax [5]	combination Emax [6]	combination Emax [7]	combination Emax [8]
C[C@@H](Oc1cc(-c2cnn(C3CCNCC3)c2)cnc1N)c1c(Cl)ccc(F)c1Cl [Crizotinib] + CC1=C(C(=CC=C1)Cl)NC(=O)C2=CN=C(S2)NC3=CC(=NC(=N3)C)N4CCN(CC4)CCO [Dasatinib] (first compound max 10 µM, 7x7, partner max 2 µM)	0.945	0.648	0.39	0.181	0.799	0.532	0.968	–
C[C@@H](Oc1cc(-c2cnn(C3CCNCC3)c2)cnc1N)c1c(Cl)ccc(F)c1Cl [Crizotinib] + Cn1cnc2c(F)c(Nc3ccc(Br)cc3Cl)c(C(=O)NOCCO)cc21 [Selumetinib] (first compound max 10 µM, 7x7, partner max 10 µM)	0.929	0.496	0.587	0.154	0.535	0.297	0.973	–
CS(=O)(=O)CCNCc1ccc(-c2ccc3ncnc(Nc4ccc(OCc5cccc(F)c5)c(Cl)c4)c3c2)o1 [Lapatinib] + Cn1cnc2c(F)c(Nc3ccc(Br)cc3Cl)c(C(=O)NOCCO)cc21 [Selumetinib] (first compound max 10 µM, 7x7, partner max 10 µM)	0.731	0.702	0.575	0.5	0.482	0.52	0.954	–
CS(=O)(=O)CCNCc1ccc(-c2ccc3ncnc(Nc4ccc(OCc5cccc(F)c5)c(Cl)c4)c3c2)o1 [Lapatinib] + NC1(c2ccc(-c3nc4ccn5c(=O)[nH]nc5c4cc3-c3ccccc3)cc2)CCC1 [MK-2206] (first compound max 10 µM, 7x7, partner max 10 µM)	0.965	0.663	0.293	–	0.756	0.348	0.981	0.967
O=C(c1cc(Cc2n[nH]c(=O)c3ccccc23)ccc1F)N1CCN(C(=O)C2CC2)CC1 [Olaparib] + CC1(C)CCC(CN2CCN(c3ccc(C(=O)NS(=O)(=O)c4ccc(NCC5CCOCC5)c([N+](=O)[O-])c4)c(Oc4cnc5[nH]ccc5c4)c3)CC2)=C(c2ccc(Cl)cc2)C1 [Venetoclax] (first compound max 10 µM, 7x7, partner max 1 µM)	0.786	0.174	0.176	0.243	0.18	0.146	0.155	–
O=C(c1cc(Cc2n[nH]c(=O)c3ccccc23)ccc1F)N1CCN(C(=O)C2CC2)CC1 [Olaparib] + CN(CC[C@H](CSC1=CC=CC=C1)NC2=C(C=C(C=C2)S(=O)(=O)NC(=O)C3=CC=C(C=C3)N4CCC(CC4)[C@H](C5=CC=CC=C5C6=CC=C(C=C6)Cl)O)S(=O)(=O)C(F)(F)F)CCO [AZD4320] (first compound max 10 µM, 7x7, partner max 1 µM)	0.944	0.163	0.413	0.251	0.19	0.242	0.267	–
O=C(c1cc(Cc2n[nH]c(=O)c3ccccc23)ccc1F)N1CCN(C(=O)C2CC2)CC1 [Olaparib] + COc1nnc2ccc(N3CCC(c4ccc(OCCN5CCN(C)C(=O)[C@H]5C)cc4)CC3)nn12 [AZD5153] (first compound max 10 µM, 7x7, partner max 1 µM)	0.746	0.35	0.39	0.376	0.571	0.361	0.558	–
O=C(c1cc(Cc2n[nH]c(=O)c3ccccc23)ccc1F)N1CCN(C(=O)C2CC2)CC1 [Olaparib] + Cc1c2c(nn1C)CSCc1cc(n(C)n1)CSc1cc(c3ccccc3c1)OCCCc1c(C(=O)O)n(C)c3c-2c(Cl)ccc13 [AZD5991] (first compound max 10 µM, 7x7, partner max 1 µM)	0.787	0.0997	0.13	0.643	0.859	0.112	0.166	–
Cc1nc(-c2cn3c(n2)-c2ccc(-c4cnn(C(C)(C)C(N)=O)c4)cc2OCC3)n(C(C)C)n1 [Taselisib] + O=C(Nc1ccc2[nH]nc(-c3ccncc3)c2c1)[C@@H]1CCN(CC(=O)N2CCN(c3ccc(-c4ncccn4)cc3)CC2)C1 [SCH772984] (first compound max 10 µM, 7x7, partner max 5 µM)	0.999	0.769	0.71	0.428	0.722	0.818	0.905	–
CC1(C)CCC(CN2CCN(c3ccc(C(=O)NS(=O)(=O)c4ccc(NCC5CCOCC5)c([N+](=O)[O-])c4)c(Oc4cnc5[nH]ccc5c4)c3)CC2)=C(c2ccc(Cl)cc2)C1 [Venetoclax] + CS(=O)(=O)CCNCc1ccc(-c2ccc3ncnc(Nc4ccc(OCc5cccc(F)c5)c(Cl)c4)c3c2)o1 [Lapatinib] (first compound max 1 µM, 7x7, partner max 10 µM)	0.656	0.631	0.0976	0.471	0.385	0.287	0.917	–
